Measured values as given in patent US4291036A, “Pyrido[1,2-A]pyrimidine derivatives and method of analgesic treatment” (priority 1977, dated 1981).
Structures can show the parent of a compound that is named as a salt. Where two headings read alike, the source gives them in different places.

Assays:
[1] = Toxicity (LD50; Litchfield and Wilcoxon); conditions: in vivo
Source text: Toxicity: Litchfield J. T. and Wilcoxon: J. Pharmacol. Sci 54 (1965) 888.

[2] = Hot plate test (analgesia); format: in vivo, rats; conditions: for ED50: Rattus norvegicus
Method: (§1) The analgesic effect was tested on the hot-plate and algolytic tests.
Hot plate test: Woolfe and McDonald J. Pharm. 80, 300 (1944) modified by Porszasz and Herr: Kiserletes Orvostudomany 2, 292 (1950).

[3] = dog, in vivo
Source text: Beagles are much more sensitive to CNS effects than rats, Rhesus monkeys and man.

[4] = Analgesic potency compared with Probon, rat; format: in vivo
[5] = Analgesic potency compared with Probon, dog; format: in vivo
[6] = Inhibition of the CNS effects of Probon; conditions: in vivo
[7] = rat, in vivo
[8] = Algolytic test (analgesia); format: in vivo; conditions: for Algolytic test ED100: p.o.
Method: as §1
Algolytic test: J. Knoll et. al: Animal and Clinical Pharmacological Techniques in Drug Evaluation Eds. Siegler, P. E. and Meyer J. II. Year Book Medical Pub. Chicago (1967) pages 305-321.

[9] = s.c.; Knoll et al. 1971; cited from earlier work
[10] = s.c.; Knoll et al. 1971; cited from earlier work; remark: listed apart in the source
[11] = Table I, route not given, read-out: LD50
[12] = Table IV, rats, i.v., read-out: LD50 rats i.v.
[13] = po, Table IV, rats, p.o., read-out: Hot plate test ED50 p.o.
[14] = po, Table IV, rats, p.o., read-out: LD50 rats p.o.
[15] = sc, Table IV, rats, s.c., read-out: LD50 rats s.c.
[16] = sc, Table IV, rats, s.c., read-out: Hot plate test ED50 s.c.
[17] = iv, Table IV, rats, i.v., read-out: Hot plate test ED50 i.v.
[18] = iv, Table III, i.v., read-out: LD50 i.v.
[19] = po, Table III, p.o., read-out: LD50 p.o.
[20] = sc, Table III, s.c., read-out: LD50 s.c.
[21] = po, Table II, p.o., read-out: Hot plate test ED50
[22] = po, Table III, p.o., read-out: ED50 hot-plate p.o.
[23] = sc, Table III, s.c., read-out: ED50 hot-plate s.c.
[24] = iv, Table III, i.v., read-out: ED50 hot-plate i.v.

Cc1nc2cccc(C)n2c(=O)c1C.Cl [2,3,6-trimethyl-4-oxo-4H-pyrido[1,2-a]pyrimidine hydrochloride]
LD50 [1, 11]: 780 µmol/kg | LD50 [1, 12]: 175 mg/kg | ED50 [2, 13]: 87 mg/kg

CCc1c(C)nc2cccc(C)n2c1=O [2,6-dimethyl-3-ethyl-4-oxo-4H-pyrido[1,2-a]pyrimidine]
CNS symptoms [3]: failing to elicit the CNS symptoms | analgesic potency compared with Probon [4]: more potent analgesic than Probon | analgesic potency compared with Probon [5]: more potent analgesic than Probon | inhibition of the CNS effects of Probon [6]: strongly inhibit the CNS effects of Probon | CNS symptoms [7]: failing to elicit the CNS symptoms

CCCCc1c(C)nc2cccc(C)n2c1=O.Cl [2,6-dimethyl-3-n-butyl-4-oxo-4H-pyrido[1,2-a]pyrimidine hydrochloride]
LD50 [1, 14]: 1100 mg/kg | ED50 [2, 13]: 340 mg/kg

CCCc1c(C)nc2cccc(C)n2c1=O.Cl [2,6-dimethyl-3-n-propyl-4-oxo-4H-pyrido[1,2-a]pyrimidine hydrochloride]
LD50 [1, 14]: 1000 mg/kg | LD50 [1, 15]: 1200 mg/kg | LD50 [1, 11]: 316 µmol/kg | ED50 [2, 16]: 48 mg/kg

CCc1c(C)nc2ccc(C)cn2c1=O [2,7-dimethyl-3-ethyl-4-oxo-4H-pyrido[1,2-a]pyrimidine . HCl]
LD50 [1, 14]: 900 mg/kg | LD50 [1, 15]: 800 mg/kg | LD50 [1, 12]: 175 mg/kg | ED50 [2, 17]: 75 mg/kg | ED50 [2, 13]: 500 mg/kg | ED50 [2, 16]: 150 mg/kg

CCc1c(C)nc2c(C)cccn2c1=O.Cl [2,9-dimethyl-3-ethyl-4-oxo-4H-pyrido[1,2-a]pyrimidine HCl]
LD50 [1, 14]: 820 mg/kg | ED50 [2, 13]: 310 mg/kg

CCc1c(C)nc2ccc(Cl)cn2c1=O.Cl [2-methyl-3-ethyl-7-chloro-4-oxo-4H-pyrido[1,2-a]pyrimidine hydrochloride]
LD50 [1, 14]: 1100 mg/kg | ED50 [2, 13]: 98 mg/kg

CCCCc1c(C)nc2ccccn2c1=O [2-methyl-3-n-butyl-4-oxo-4H-pyrido[1,2-a]pyrimidine . HCl]
LD50 [1, 14]: 1100 mg/kg | ED50 [2, 13]: 251 mg/kg

CCCc1c(C)nc2ccccn2c1=O.Cl [2-methyl-3-n-propyl-4-oxo-4H-pyrido[1,2-a]pyrimidine hydrochloride]
LD50 [1, 11]: 502 µmol/kg

CCc1nc2cccc(C)n2c(=O)c1C.Cl [3,6-dimethyl-2-ethyl-4-oxo-4H-pyrido[1,2-a]pyrimidine hydrochloride]
LD50 [1, 11]: 120 µmol/kg

CCc1c(C)nc2cccc(C)n2c1=O.Cl [Compound A, 2,6-dimethyl-3-ethyl-4-oxo-4H-pyrido[1,2-a]pyrimidine hydrochloride]
LD50 [1, 18]: 190 mg/kg | LD50 [1, 19]: 690 mg/kg | LD50 [1, 20]: 520 mg/kg | LD50 [1, 11]: 796 µmol/kg | ED50 [2, 21]: 68 mg/kg | ED50 [2, 22]: 68 mg/kg | ED50 [2, 13]: 68 mg/kg | ED50 [2, 23]: 74 mg/kg | ED50 [2, 16]: 74 mg/kg | ED50 hot-plate p.o. ([2]; Table III, p.o., hydrochloride): 58 mg/kg | algolytic (+5mg./kg morphine), result in words ([8]; Table III): effective per se | ED50 algolytic (+5mg./kg morphine) ([8]; Table III, s.c.): 8.6 mg/kg | ED100 ([8]; po, Table II): 420 mg/kg | ED50 ([8]; sc): 98 mg/kg

CCc1c(C)nc2ccccn2c1=O [Compound B, 2-methyl-3-ethyl-4-oxo-4H-pyrido[1,2-a]pyrimidine.HCl]
LD50 [1, 18]: 280 mg/kg | LD50 [1, 19]: 1000 mg/kg | LD50 [1, 20]: 620 mg/kg | LD50 [1, 11]: 1070 µmol/kg | ED50 [2, 24]: 100 mg/kg | ED50 [2, 17]: 100 mg/kg | ED50 [2, 21]: 330 mg/kg | ED50 [2, 22]: 300 mg/kg | ED50 [2, 13]: 300 mg/kg | ED50 [2, 23]: 180 mg/kg | ED50 [2, 16]: 180 mg/kg | Algolytic test ED100 ([8]; Table II): cannot be achieved | ED50 algolytic (+5mg./kg morphine) ([8]; Table III, i.v.): 2.75 mg/kg

CCc1c(C)nc2cc(C)cc(C)n2c1=O [Compound C, 2,6,8-trimethyl-3-ethyl-4-oxo-4H-pyrido[1,2-a]pyrimidine.HCl]
LD50 [1, 18]: 120 mg/kg | LD50 [1, 19]: 1500 mg/kg | LD50 [1, 20]: 820 mg/kg | ED50 [2, 24]: 49 mg/kg | ED50 [2, 17]: 49 mg/kg | ED50 [2, 21]: 580 mg/kg | ED50 [2, 22]: 580 mg/kg | ED50 [2, 13]: 580 mg/kg | ED50 [2, 23]: 120 mg/kg | ED50 [2, 16]: 120 mg/kg | Algolytic test ED100 ([8]; Table II): cannot be achieved

CCOC(=O)c1c[n+](C)c2n(c1=O)C(C)CCC2 (stereo not shown) [Probon, 1,6-dimethyl-3-ethoxycarbonyl-4-oxo-4H-6,7,8,9-tetrahydro-pyrido[1,2-a]pyrimidinium-methosulfate, reference compound]
LD50 ([1]; iv, read-out: LD50 rats i.v.): 220 mg/kg | LD50 ([1]; po, read-out: LD50 rats p.o.): 1600 mg/kg | LD50 ([1]; read-out: LD50): 607 µmol/kg | ED50 [2, 17]: 50 mg/kg | ED50 [2, 13]: 220 mg/kg | dose causing death of the animal ([3]; po): 300 mg/kg | oral dose at which disturbances of coordination and behavior, ataxia appear ([3]; po): above 100 mg./kg. body weight | oral dose level at which CNS symptoms are very marked ([3]; po): 150 to 200 mg/kg | dose causing inhibition of the conditioned reflex [9]: ≥ 250 mg/kg | dose eliciting characteristic desynchronization of the EEG [10]: ≥ 250 mg/kg
